Data on one compound can be found in article PMC3001719, “The heme sensing response regulator HssR in Staphylococcus aureus but not the homologous RR23 in Listeria monocytogenes modulates susceptibility to the antimicrobial peptide plectasin” (BMC Microbiology, 2010).

In experiment [1] the test system is L. monocytogenes wild type. Put plainly: Spontaneous mutation control on plectasin plates. It is filed as cell-based, Listeria monocytogenes. As to conditions: L. monocytogenes wild type grown on BHI with 4, 5 or 10 fold MIC of plectasin. As for the experimental part: The transposon mutant libraries were screened on agar plates for increased resistance to plectasin as compared to wild-type sensitivity. Wild-type sensitivity was determined by plating approx. 1.0 × 10^7 CFU/ml on TSB agar containing plectasin (S. aureus) and approx. […] Plates were incubated at 37°C for 3 days and inspected for growth. […]

Experiment [2] deals with L. monocytogenes. As to conditions: cited from earlier work. From the text:
(§1) In the present study, we addressed the response of two human pathogens, S. aureus and L. monocytogenes to plectasin. […] In addition, the two bacteria represent different routes of infection and may be exposed to different arrays of HDPs. S. aureus is a hospital- and community-acquired pathogen that causes a wide range of diseases including septicaemia, toxic-shock syndrome and food poisoning ...

The test system of experiment [3] is methicillin resistant S. aureus (MRSA). As to conditions: cited from earlier work.
Excerpt: as §1

The test system of experiment [4] is S. aureus 8325-4 hssR::bursa/pRMC2-hssRS. Put plainly: Growth in TSB with plectasin. The experiment is classed as cell-based, Staphylococcus aureus. The following applies: plectasin 35 μg/ml, 37°C, absorbance at 600 nm. As for the experimental part: (§2) Overnight cultures of S. aureus were diluted to an absorbance at 600 nm of 0.05 in TSB with and without 4 μM hemin and/or 35 μg/ml plectasin and grown at 37°C. Measurements of the absorbance were made every 30 minutes.

Experiment [5] has as its system S. aureus 15981 wild type. Put plainly: Growth in TSB with plectasin. The experiment is classed as cell-based, Staphylococcus aureus. As to conditions: plectasin 35 μg/ml, 37°C, absorbance at 600 nm. As to the method: as §2
Experiment [6] has as its system plasmid DNA (pBluescript II SK+). Put plainly: DNA-binding analysis by in vitro gel retardation. The following applies: 100 ng plasmid DNA with increasing amounts of peptide, 1 h at room temperature, data not shown. As for the experimental part: Gel retardation analysis were performed as described by Nan et al by mixing 100 ng of plasmid DNA (pBluescript II SK^+(Stratagene)) with increasing amounts of peptide in 20 μl binding buffer (5% glycerol, 10 mM Tris, 1 mM EDTA, 1 mM dithiothreitol, 20 mM KCL and 50 μg ml^-1 bovine serum albumin). Reaction mixtures were incubated 1 h at room temperature and subjected to 1% agarose gel electrophoresis and visualised using ethidium bromide.

The subject of experiment [7] is L. monocytogenes. Put plainly: MIC of plectasin stated in the text. The experiment is classed as cell-based, Listeria monocytogenes. As to conditions: difference in MIC values between the strains.
Experiment [8] deals with S. aureus wild type and hssR mutants. Put plainly: Extracellular protein profile by SDS-PAGE. As to conditions: S. aureus wild type and hssR mutants grown with or without plectasin overnight at 37°C in TSB; data not shown. The experiment is classed as cell-based, Staphylococcus aureus. As for the experimental part:
Prewarmed TSB and BHI (25 ml) in a 250 ml Erlenmeyer flask was inoculated with S. aureus strains and L. monocytogenes strains, respectively. These flasks were grown with and without plectasin at 37°C overnight (≈ 17 h) with shaking. The next morning, the exact absorbance at 600 nm of the cultures was measured, and 15 ml of culture was centrifuged to precipitate the cells (6 000 RPM; 7 min; 0°C). The supernatant was transferred to a 50 ml Blue cap bottle (placed in an ice/water bath), and the extracellular proteins were precipitated by adding one volume of ice-cold 96% EtOH and left in the refrigerator overnight for proteins to precipitate. Precipitated proteins were collected by centrifugation (11,000 RPM; 30 min; 0°C). Protein pellets were suspended in a volume of 50 mM Tris-HCl (pH 6.8) adjusted to the original absorbance of the overnight culture so that 15 ml of overnight culture with absorbance at 600 nm of 5.0 was suspended in 0.8 ml of 50 mM Tris-HCl (pH 6.8). A sample of 15 μl of the protein extracts was analysed on NuPAGE® 4-12% Bis-Tris gels (Invitrogen) using the X Cell SureLock® Mini-Cell system (Invitrogen) as recommended by the supplier. The gels were Coomassie stained using GelCode® Blue Stain Reagent (Pierce).

Experiment [9] concerns L. monocytogenes. Put plainly: ATP leakage (intracellular and extracellular ATP, bioluminescence). It is filed as cell-based, Listeria monocytogenes. As to conditions: L. monocytogenes, 500 μg/ml peptide, 50 mM HEPES pH 7.0 with 0.2% glucose, vs peptide dilution buffer. As for the experimental part: L. monocytogenes and S. aureus were grown in TSB at 37°C. Bacteria were harvested (10 min at 3000 RPM) at mid-exponential phase (absorbance at 546 nm of 2.5 ± 0.2 and 1.0 ± 0.2 for S. aureus and L. monocytogenes, respectively), washed once in 50 mM potassium phosphate buffer pH 7.0 and once in 50 mM HEPES buffer pH 7.0. The pellet was resuspended in 50 mM HEPES pH 7.0 to a final absorbance at 546 nm of 10. Bacteria were stored on ice and used within 5 hours. […] ATP was determined using a bioluminescence kit (Sigma, FLAA-1KT) and a BioOrbit 1253 luminometer. Total ATP content was determined by rapidly permeabilising 20 μl cell suspension with 80 μl dimethyl sulfoxide. The cell suspension was diluted in 4.9 ml sterile water, and ATP content was determined in 100 μl of the preparation as described by the manufacturer. To determine the extracellular ATP concentration, the 20 μl cell suspension was mixed with 80 μl sterile water and analyzed as described above. Intracellular ATP concentrations were calculated by using the intracellular volumes of 0.85 and 1.7 μm^3 for S. aureus and L. monocytogenes, respectively. The number of cells in suspension was determined by plate spreading.

Consider `CC[C@H](C)[C@@H]1NC(=O)[C@H](CO)NC(=O)[C@H](CCCCN)NC(=O)[C@@H]2CSSC[C@@H](C(=O)N[C@@H](Cc3ccc(O)cc3)C(=O)O)NC(=O)[C@H](CCCCN)NC(=O)[C@@H]3CSSC[C@H](NC(=O)[C@H](CCC(N)=O)NC(=O)[C@H](CCSC)NC(=O)[C@H](CC(=O)O)NC(=O)[C@H](CC(=O)O)NC(=O)[C@H](CCC(=O)O)NC(=O)[C@H](CC(=O)O)NC(=O)[C@H](Cc4c[nH]c5ccccc45)NC(=O)[C@@H]4CCCN4C(=O)CNC(=O)[C@H](CC(N)=O)NC(=O)[C@@H](NC(=O)CNC(=O)[C@H](Cc4ccccc4)NC(=O)CN)CSSC[C@H](NC(=O)[C@H](Cc4ccc(O)cc4)NC(=O)CNC(=O)CNC(=O)[C@H](CCCCN)NC(=O)[C@H](Cc4ccc(O)cc4)NC(=O)CNC(=O)[C@H](CCCCN)NC1=O)C(=O)N[C@@H](C)C(=O)N[C@@H](CCCCN)C(=O)NCC(=O)NCC(=O)N[C@@H](Cc1ccccc1)C(=O)N[C@@H](C(C)C)C(=O)N3)C(=O)N[C@@H](Cc1c[nH]cn1)C(=O)N[C@@H](CC(N)=O)C(=O)N[C@@H](Cc1c[nH]cn1)C(=O)N2` [plectasin], for which the “Spontaneous mutations leading to changes in sensitivity” value in experiment [1] is recorded as “no spontaneous mutations”. In addition, the MIC entry with L. monocytogenes [2] is “above 64 mg/L”; in [3], 16 to 32 µg/mL. Further, the “Growth in the presence of plectasin” value is “inhibited the growth to a level comparable to wild type” in experiment [4] and “inhibited the growth” in experiment [5]. For the same compound, the “Binding to DNA” value in experiment [6] was “unable to demonstrate binding”. Further, in the experiment with L. monocytogenes [7], the “Tolerance of L. monocytogenes compared to S. aureus” value was 4-8 fold. Also, the “Abundance of extracellular proteins” value in experiment [8] was “no difference in the abundance of extracellular proteins”. Further, in the experiment on L. monocytogenes [9], the “ATP leakage (intracellular ATP concentration)” value was “remained at the same level as the controls”.
